Assay results as given in paper PMC4919066 (PLoS Pathogens, 2016).
Counter-ions that a name gives are not always drawn.

Key:
RPS14 = RPS14 (Homo sapiens, UniProt P62263); test: RPS14 nuclear localization, confocal microscopy; format: cell-based; details: emetine 75 nM, infected high-density cells
Procedure: Cells were fixed with 3.7% paraformaldehyde for 20 min at room temperature, permeabilized with ice cold methanol for 10 min at -20°C and blocked with 5% bovine serum albumin in 0.5% Tween-20 for 20 min at room temperature. Cells were incubated with primary antibodies at 4°C overnight, washed and incubated with fluorescently-labeled secondary antibodies for 2 h at 37°C. Fluorescence microscopy was performed using a confocal laser scanning microscope (Nikon EZ C1). All images were captured at 60X magnification and processed under identical conditions with constant parameters (including scan speed and excitation and emission wavelengths) using Nikon EZ C1 software. Data analysis (percent nuclear localization) was performed by NIS-Elements software (Nikon) for a minimum of 40 cells in the high-density and 25 cells in the low-density samples from two fields per condition.

MCMV = test system: MCMV
Procedure: For infection experiments BALB/c mice, 4–6 weeks old, were purchased from Harlan Laboratories (Indianapolis, Indiana). The Animal Care and Use Committee of Johns Hopkins University approved the experimental procedures. […] Mice were infected intraperitoneally with 10^6 PFU/mice (0.1 mL in 0.8% saline). Control mice received 0.1 ml of saline intraperitoneally. […] GCV was administered intraperitoneally twice daily. […] Control and infected mice received equivalent volumes of saline. Mice were sacrificed at day 14 after infection. Blood samples were collected by cardiac puncture. Salivary glands and liver were harvested and stored at -80°C. Organs were homogenized in DMEM with 4% FBS at a final concentration of 100 mg/mL. Two million MEFs were seeded into 24-well plates. From each sample, 5% of the salivary gland homogenate or 10% of the liver homogenate was used for infection of MEFs in triplicates. Plaques were counted after three days. Whole blood viral load was measured at day 14 by real-time PCR of the glycoprotein B (gB) gene. DNA was extracted using the DNA blood mini kit (Qiagen, Georgetown, MD).

[1] = test system: protein synthesis in HFFs; test: Translation inhibition assay; format: cell-based, human; details: nM concentrations, non-infected or HCMV-infected cells, 24 h
Procedure: […] HFFs were seeded in a 96-well black, clear bottom tissue culture plate. […] A protein synthesis assay kit (Cayman Chemical, Ann Arbor, Michigan) was used according to manufacturer's protocol to quantify emetine-mediated translation inhibition using a fluorescence based assay.

in vivo = test: in vivo; parameters: species or system BALB/c mice
Procedure: The dosing solution was prepared in saline with a dosing volume of 10 mL/kg. Blood and tissue samples including liver, lung and spleen were collected at 0, 0.083, 0.25, 0.5, 0.75, 1, 2, 3, 4, 7, 24, 30, 48, 72 and 96 hr. […] Pharmacokinetic parameters (Cmax, Tmax, AUC and t1/2) were calculated with a non-compartmental approach using the Pharsight WinNonLin software (Ver. 6.4). The experimental procedures were approved by the Animal Care and Use Committee of Division of Veterinary Resources, NIH.

[2] = all treatment regimens (0.1 or 1 mg/kg oral, from 24 or 72 hpi), day 14
[3] = 0.083 h after single oral 0.1 mg/kg, BALB/c mice
[4] = 0.25 h after single oral 0.1 mg/kg, BALB/c mice
[5] = 0.5 h after single oral 0.1 mg/kg, BALB/c mice
[6] = 1 h after single oral 0.1 mg/kg, BALB/c mice
[7] = 2 h after single oral 0.1 mg/kg, BALB/c mice
[8] = 3 h after single oral 0.1 mg/kg, BALB/c mice
[9] = 4 h after single oral 0.1 mg/kg, BALB/c mice
[10] = 7 h after single oral 0.1 mg/kg, BALB/c mice
[11] = 24 h after single oral 0.1 mg/kg, BALB/c mice
[12] = 30 h after single oral 0.1 mg/kg, BALB/c mice
[13] = 48 h after single oral 0.1 mg/kg, BALB/c mice
[14] = 72 h after single oral 0.1 mg/kg, BALB/c mice
[15] = 96 h after single oral 0.1 mg/kg, BALB/c mice

In the case of `CC[C@H]1CN2CCc3cc(OC)c(OC)cc3[C@@H]2C[C@@H]1C[C@H]1NCCc2cc(OC)c(OC)cc21` [emetine, emetine dihydrochloride hydrate], the “nuclear localization of RPS14” value (RPS14; 24 hpi) is reported as 66%, the “nuclear localization of RPS14” value (RPS14; 72 hpi) is reported as 11% and the “decrease in MCMV DNA copy number in blood compared to infected control” value (MCMV; 0.1 or 1 mg/kg orally every three days from 24 h or 72 h after infection, day 14) is reported as 2 to 4 log10. The “reduction of viral PFUs in liver” value (MCMV; [2]) was 3–6 fold, the “reduction of viral PFUs in salivary gland” value (MCMV; [2]) was 4–6 fold and the “tolerability in mouse CMV model” value (MCMV; mouse) was “well-tolerated”. The “inhibition of protein synthesis” value [1] was “did not inhibit protein synthesis”, the “LIVER Conc.” value (in vivo; [3]) was 0.007 µmol/kg and the “LIVER Mean Conc.” value (in vivo; [3]) was 3.59 ng/g. The “LUNG Conc.” value (in vivo; [3]) was 0.002 µmol/kg, the “LUNG Mean Conc.” value (in vivo; [3]) was 1.07 ng/g and the “LIVER Conc.” value (in vivo; [4]) was 0.013 µmol/kg. For the same compound, the “LIVER Mean Conc.” value (in vivo; [4]) was 6.18 ng/g, the “LUNG Conc.” value (in vivo; [4]) was 0.003 µmol/kg and the “LUNG Mean Conc.” value (in vivo; [4]) was 1.49 ng/g. The “LIVER Conc.” value (in vivo; [5]) was 0.037 µmol/kg, the “LIVER Mean Conc.” value (in vivo; [5]) was 17.7 ng/g and the “LUNG Conc.” value (in vivo; [5]) was 0.006 µmol/kg. The “LUNG Mean Conc.” value (in vivo; [5]) was 2.90 ng/g, the “SPLEEN Conc.” value (in vivo; [5]) was 0.002 µmol/kg and the “SPLEEN Mean Conc.” value (in vivo; [5]) was 1.12 ng/g. For the same compound, the “LIVER Conc.” value (in vivo; [6]) was 0.117 µmol/kg, the “LIVER Mean Conc.” value (in vivo; [6]) was 56.5 ng/g and the “LUNG Conc.” value (in vivo; [6]) was 0.017 µmol/kg. The “LUNG Mean Conc.” value (in vivo; [6]) was 8.11 ng/g, the “SPLEEN Conc.” value (in vivo; [6]) was 0.012 µmol/kg and the “SPLEEN Mean Conc.” value (in vivo; [6]) was 5.60 ng/g. The “LIVER Conc.” value (in vivo; [7]) was 0.192 µmol/kg, the “LIVER Mean Conc.” value (in vivo; [7]) was 92.2 ng/g and the “LUNG Conc.” value (in vivo; [7]) was 0.020 µmol/kg. For the same compound, the “LUNG Mean Conc.” value (in vivo; [7]) was 9.70 ng/g, the “SPLEEN Conc.” value (in vivo; [7]) was 0.018 µmol/kg and the “SPLEEN Mean Conc.” value (in vivo; [7]) was 8.81 ng/g. The “LIVER Conc.” value (in vivo; [8]) was 0.316 µmol/kg, the “LIVER Mean Conc.” value (in vivo; [8]) was 152 ng/g and the “LUNG Conc.” value (in vivo; [8]) was 0.037 µmol/kg. The “LUNG Mean Conc.” value (in vivo; [8]) was 17.9 ng/g, the “SPLEEN Conc.” value (in vivo; [8]) was 0.032 µmol/kg and the “SPLEEN Mean Conc.” value (in vivo; [8]) was 15.3 ng/g. For the same compound, the “LIVER Conc.” value (in vivo; [9]) was 0.437 µmol/kg, the “LIVER Mean Conc.” value (in vivo; [9]) was 210 ng/g and the “LUNG Conc.” value (in vivo; [9]) was 0.071 µmol/kg. For the same compound, the “LUNG Mean Conc.” value (in vivo; [9]) was 34.2 ng/g, the “SPLEEN Conc.” value (in vivo; [9]) was 0.064 µmol/kg and the “SPLEEN Mean Conc.” value (in vivo; [9]) was 30.6 ng/g. The “LIVER Conc.” value (in vivo; [10]) was 0.527 µmol/kg, the “LIVER Mean Conc.” value (in vivo; [10]) was 253 ng/g and the “LUNG Conc.” value (in vivo; [10]) was 0.097 µmol/kg. For the same compound, the “LUNG Mean Conc.” value (in vivo; [10]) was 46.6 ng/g, the “SPLEEN Conc.” value (in vivo; [10]) was 0.093 µmol/kg and the “SPLEEN Mean Conc.” value (in vivo; [10]) was 44.9 ng/g. The “LIVER Conc.” value (in vivo; [11]) was 0.193 µmol/kg, the “LIVER Mean Conc.” value (in vivo; [11]) was 93.0 ng/g and the “LUNG Conc.” value (in vivo; [11]) was 0.138 µmol/kg. The “LUNG Mean Conc.” value (in vivo; [11]) was 66.1 ng/g, the “SPLEEN Conc.” value (in vivo; [11]) was 0.175 µmol/kg and the “SPLEEN Mean Conc.” value (in vivo; [11]) was 84.3 ng/g. For the same compound, the “LIVER Conc.” value (in vivo; [12]) was 0.174 µmol/kg, the “LIVER Mean Conc.” value (in vivo; [12]) was 83.6 ng/g and the “LUNG Conc.” value (in vivo; [12]) was 0.133 µmol/kg. For the same compound, the “LUNG Mean Conc.” value (in vivo; [12]) was 64.1 ng/g, the “SPLEEN Conc.” value (in vivo; [12]) was 0.193 µmol/kg and the “SPLEEN Mean Conc.” value (in vivo; [12]) was 92.5 ng/g. The “LIVER Conc.” value (in vivo; [13]) was 0.073 µmol/kg, the “LIVER Mean Conc.” value (in vivo; [13]) was 34.9 ng/g and the “LUNG Conc.” value (in vivo; [13]) was 0.078 µmol/kg. The “LUNG Mean Conc.” value (in vivo; [13]) was 37.4 ng/g, the “SPLEEN Conc.” value (in vivo; [13]) was 0.139 µmol/kg and the “SPLEEN Mean Conc.” value (in vivo; [13]) was 66.6 ng/g. The “LIVER Conc.” value (in vivo; [14]) was 0.044 µmol/kg, the “LIVER Mean Conc.” value (in vivo; [14]) was 21.2 ng/g and the “LUNG Conc.” value (in vivo; [14]) was 0.049 µmol/kg. The “LUNG Mean Conc.” value (in vivo; [14]) was 23.7 ng/g, the “SPLEEN Conc.” value (in vivo; [14]) was 0.094 µmol/kg and the “SPLEEN Mean Conc.” value (in vivo; [14]) was 45.2 ng/g. The “LIVER Conc.” value (in vivo; [15]) was 0.028 µmol/kg, the “LIVER Mean Conc.” value (in vivo; [15]) was 13.5 ng/g and the “LUNG Conc.” value (in vivo; [15]) was 0.030 µmol/kg. For the same compound, the “LUNG Mean Conc.” value (in vivo; [15]) was 14.3 ng/g, the “SPLEEN Conc.” value (in vivo; [15]) was 0.058 µmol/kg and the “SPLEEN Mean Conc.” value (in vivo; [15]) was 28.1 ng/g. For the same compound, the half-life (in vivo; male, mouse, in vivo, single oral 0.1 mg/kg, BALB/c mice, read-out: calculated half-life (converted)) was 35 h and the plasma concentrations (in vivo; single oral 0.1 mg/kg, male BALB/c mice, UPLC-MS/MS) was “mostly below the level limit of quantification”.
